Data on 2 molecules can be found in patent US12351574B2, “Selective ligands for modulation of GIRK channels” (Northeastern University, priority 2018, dated 2025).

Molecules are shown by their SMILES.

The nature of one series: light-dark box (LD) test. It is filed as in vivo, rat. The note with it: 10 and 30 mg/kg. As to the method: Light-dark box: Light-Dark Box test was preformed using a cage 52×100×39 cm divided into two equal sections by an opening. One section is brightly illuminated whereas the other section is dark. Animals were injected 30 min prior to testing with vehicle or ligand and then placed into the light side with immediate access to explore the entire cage. Time spent in the illuminated section was analyzed. The chamber was cleaned between each experiment.

Another series addresses T1, GIRK1/2 (UniProt P48542+P48549).
T1 sequence (P48549 1-501): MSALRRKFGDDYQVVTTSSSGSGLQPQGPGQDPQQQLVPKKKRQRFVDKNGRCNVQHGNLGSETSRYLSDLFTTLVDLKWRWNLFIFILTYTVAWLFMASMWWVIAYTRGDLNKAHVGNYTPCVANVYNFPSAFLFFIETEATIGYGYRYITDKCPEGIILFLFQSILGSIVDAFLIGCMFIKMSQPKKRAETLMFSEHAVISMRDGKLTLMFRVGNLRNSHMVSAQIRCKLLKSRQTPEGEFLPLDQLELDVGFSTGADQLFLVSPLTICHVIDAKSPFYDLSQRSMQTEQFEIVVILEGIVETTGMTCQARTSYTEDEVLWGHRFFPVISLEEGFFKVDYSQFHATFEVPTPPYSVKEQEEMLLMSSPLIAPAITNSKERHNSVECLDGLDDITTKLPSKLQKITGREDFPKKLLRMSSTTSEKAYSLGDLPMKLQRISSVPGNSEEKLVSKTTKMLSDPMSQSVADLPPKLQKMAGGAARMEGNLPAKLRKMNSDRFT
T1 sequence (P48542 1-425): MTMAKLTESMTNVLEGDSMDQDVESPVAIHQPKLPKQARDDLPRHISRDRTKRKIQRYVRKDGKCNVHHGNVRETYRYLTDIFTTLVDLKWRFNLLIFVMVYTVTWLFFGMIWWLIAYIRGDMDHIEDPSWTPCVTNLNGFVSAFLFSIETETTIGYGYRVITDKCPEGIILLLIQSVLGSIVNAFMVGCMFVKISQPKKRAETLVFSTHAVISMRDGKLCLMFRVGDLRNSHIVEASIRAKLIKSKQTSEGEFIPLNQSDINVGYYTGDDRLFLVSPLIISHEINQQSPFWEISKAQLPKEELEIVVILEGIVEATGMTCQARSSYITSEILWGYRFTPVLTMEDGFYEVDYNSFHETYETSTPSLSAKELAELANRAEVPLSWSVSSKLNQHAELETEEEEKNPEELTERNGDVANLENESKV
Put plainly: thallium flux assay, cells expressing GIRK1/2. On the set-up: expressed in transfected cells. In kind it is cell-based. The text has this:
Previous studies have utilized the thallium flux Assay to test the effects of ML297 and related compounds in cells coexpressing GIRK1/2 and GIRK1/4. In order to fully investigate the selective activation of GAT compounds, the inventors also utilized this assay. […] To determine the differences between the thallium flux and TEVC assays, the inventors computationally tested whether the binding of selective compounds could affect the selectivity of the pore area. The Cα RMSF of the region between the M1 and M2 helices of the channel were calculated during the MD simulation with or without ML297 and the selective GAT compounds in the GIRK2/2^FD and GIRK4/4^FD systems (FIGS. 60A-60B). […] To further test this idea, the inventors compared the 10 μM GAT1508-induced thallium and potassium currents in oocytes expressing GIRK1/2 and GIRK1/4 by TEVC recording (FIG. 61B). […] In an effort to enhance the current, the TEVC recording was performed at a holding potential of −100 mV.

The target in series [1] is human ERG (hERG) channels (Homo sapiens, UniProt Q12809). To be noted: 5 µM. As to the method: In FIG. 52A, human ERG (hERG) channels were expressed in Xenopus oocytes and studied by two-electrode voltage clamp (TEVC). In FIG. 52A, hERG tail-current magnitude was assessed at −50 mV, following a 4 second test step to 20 mV from a holding voltage of −100 mV. The test pulse was repeated every 10-seconds. […] Two-electrode voltage-clamp and data analysis: Whole-oocyte currents were measured by two-electrode voltage clamp (TEVC) with GeneClamp 500 (Molecular Devices), or TEC-03X (NPI) amplifiers. […] The oocytes were bathed in ND96 recording solution comprising, in mM: KCl 2, NaCl 96, MgCl2 1 and HEPES 5, buffered to pH 7.4 with KOH. Where indicated, GIRK channel currents were assessed in a high K^+ recording solution comprising, in mM: KCl 96, NaCl 2, MgCl2 1 and HEPES 5, buffered to pH 7.4 with KOH. Currents were digitized using a USB interface (National Instruments) and recorded using WinWCP software (University of Strathclyde). To study GIRK channels, oocytes were held at 0 mV, and currents were assessed by 100 ms ramps from −80 to +80 mV that were repeated every second. The effect of the reagents was determined at −80 mV, then the channels were blocked by 5 mM BaCl2. Block was expressed as the percent-current block normalized to the maximum current. Between 8-12 oocytes from different Xenopus frogs were studied per experiment.
Sequence of human ERG (hERG) channels (Q12809 whole entry): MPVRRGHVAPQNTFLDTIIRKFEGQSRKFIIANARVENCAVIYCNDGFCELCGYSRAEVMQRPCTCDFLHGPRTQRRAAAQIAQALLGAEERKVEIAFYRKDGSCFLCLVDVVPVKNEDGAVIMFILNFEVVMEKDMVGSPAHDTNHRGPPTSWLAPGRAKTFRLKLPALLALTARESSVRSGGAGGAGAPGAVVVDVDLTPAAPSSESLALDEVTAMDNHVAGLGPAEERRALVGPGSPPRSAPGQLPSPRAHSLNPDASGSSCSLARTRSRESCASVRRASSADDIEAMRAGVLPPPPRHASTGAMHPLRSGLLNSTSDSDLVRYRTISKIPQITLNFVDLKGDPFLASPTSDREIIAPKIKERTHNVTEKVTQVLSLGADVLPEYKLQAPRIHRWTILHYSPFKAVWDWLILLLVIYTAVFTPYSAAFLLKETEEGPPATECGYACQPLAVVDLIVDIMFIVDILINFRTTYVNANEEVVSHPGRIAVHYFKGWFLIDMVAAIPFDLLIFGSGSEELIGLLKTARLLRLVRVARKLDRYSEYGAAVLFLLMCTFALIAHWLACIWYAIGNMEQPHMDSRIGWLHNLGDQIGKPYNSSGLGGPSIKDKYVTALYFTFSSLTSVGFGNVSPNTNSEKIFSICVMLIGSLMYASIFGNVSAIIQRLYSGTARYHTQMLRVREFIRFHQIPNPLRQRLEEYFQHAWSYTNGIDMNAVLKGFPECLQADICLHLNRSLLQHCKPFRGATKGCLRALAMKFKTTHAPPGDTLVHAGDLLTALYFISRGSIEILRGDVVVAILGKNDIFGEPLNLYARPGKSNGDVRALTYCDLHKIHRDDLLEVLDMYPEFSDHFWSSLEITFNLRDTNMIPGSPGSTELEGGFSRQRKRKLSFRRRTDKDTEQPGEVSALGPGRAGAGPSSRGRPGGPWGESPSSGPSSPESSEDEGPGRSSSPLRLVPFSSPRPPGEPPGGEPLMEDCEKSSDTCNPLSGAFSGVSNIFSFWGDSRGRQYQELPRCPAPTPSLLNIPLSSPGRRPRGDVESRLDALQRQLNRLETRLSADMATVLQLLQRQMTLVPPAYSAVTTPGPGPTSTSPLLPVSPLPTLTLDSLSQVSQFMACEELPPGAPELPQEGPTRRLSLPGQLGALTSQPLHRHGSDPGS

As to `Cc1cc(NC(=O)Nc2ccc(Br)s2)n(-c2ccccc2)n1` [GAT1508, 1-(5-bromothiophen-2-yl)-3-(3-methyl-1-phenyl-1H-pyrazol-5-yl)urea], the “time spent in the light compartment versus vehicle (in words)” value in “light-dark box (LD) test” is reported as “no difference”.

With `Cc1cc(NC(=O)Nc2ccc(F)c(F)c2)n(-c2ccccc2)n1` [ML297, reference compound], the EC50 on GIRK1/2 is around 689 nM. Moreover, the “inhibition of the hERG tail current” value in series [1] is recorded as around 40%.
